In ChEMBL document CHEMBL1136589, “Antineoplastic agents 390. Isolation and structure of phakellistatin 12 from a Chuuk archipelago marine sponge” (2003):
In brackets after ≈: the same amount, converted by molar mass. Where a SMILES comes first, the peptide text is derived from it.

Test system: P388
Assay: Inhibitory activity against P388 lymphocytic leukemia cells
Type: functional
Details: Mus musculus, read-out: ED50 (the source's name)

Compound: CC[C@H](C)[C@@H]1NC(=O)[C@@H]2CCCN2C(=O)[C@@H]2CCCN2C(=O)[C@H]([C@@H](C)CC)NC(=O)[C@H](Cc2ccc(O)cc2)NC(=O)[C@@H]2CCCN2C(=O)[C@@H]2CCCN2C(=O)[C@H](CC(C)C)NC(=O)[C@H]([C@@H](C)O)NC(=O)[C@H](Cc2ccccc2)NC1=O [PHAKELLISTATIN 12] (cyclo(FTLPPYIPPI))
- EC50: 2.8 µg/mL (≈ 2.46 µM)
